One assay has as its system HACAT keratinocytes. Put plainly: Inhibition of TGFa- or EGF-specific proliferation of HACAT keratinocytes (3H-thymidine incorporation). Format: cell-based. The note with it: test 1: HaCaT cells stimulated with recombinant human TGFa or EGF, two days. As to the method:
1. Inhibition of TGFa- or EGF-specific proliferation of HACAT keratinocytes:
The spontaneously immortalized aneuploid human keratinocyte HaCaT cell line, which has a transformed phenotype in vitro but remains non-tumorigenic, is grown in DMEM H21 medium supplemented with 5 % FCS and 2.5 % glutamine. 5 ml aliquots of a cell suspension adjusted to 2 x 10^5 cells/ml are seeded into 50 ml culture flasks and the cells are cultured for 2 to 3 days in DMEM medium supplemented with 5 % FCS. When 90-100 % confluence is attained cells are trypsinized, washed, suspended in KBM medium supplemented with 0.2 % dialyzed FCS (Gibco) and Ca^++ to a final concentration of 0.06 mM, and 2 x 10^4 cells are seeded into 96 wells cell culture plates. Proliferation is stimulated with recombinant human TGFa or EGF (reconstituted in 0.1 M acetic acid) at various concentrations in the presence of inhibitors. Cells are grown for two days at 37 / 5 % CO2. During the last 16 hours incorporation of ^3H-thymidine (1 µ.Ci/well) is performed. Cells are washed with ice-cold PBSdef. 3 times and trichloroacetic acid twice, solubilized in 100 µl of 0.1 N NaOH containing 1 % SDS, and radioactivity is counted. Inhibition of cell proliferation is expressed as % of the control.
Background: Incorporation of labelled thymidine or its analogues reports DNA synthesis.

For assay [1], the system named is oxazolone-induced allergic contact dermatitis. Put plainly: Inhibition of oxazolone-induced allergic contact dermatitis in the mouse (pinnal swelling, topical application). The format is in vivo. The note with it: test 3: mouse, two applications, concentration of 0.4 %, relative to vehicle (ethanol/acetone 7:3). As to the method:
3. Inhibition of oxazolone-induced allergic contact dermatitis in the mouse
Sensitization is induced by a single application of 2 % 6 oxazolone (10 µl) onto the abdominal skin of mice (8 animals per group). Hypersensitivity reaction causing pinnal swelling is elicited by a second exposure to 2 % oxazolone applied to one pinna of each animal after 8 days.
Inhibition of pinnal swelling is achieved by two topical applications of test compound (30 minutes before and after elicitation of the challenge reaction). Efficacy is determined by the difference of pinnal weights of animals treated with the drug and with the vehicle (ethanol/acetone 7:3), respectively, and expressed in % of swelling with vehicle application alone.

Structures are written as SMILES.

In the case of `N#CC(=Cc1ccc(O)c(O)c1)C(N)=S` [AG213], the IC50 in the assay on HACAT keratinocytes lay within 5 to 50 µM.
`COC(=O)c1cc(OCc2cc(OC)ccc2OC)ccc1O` [Example 1, 5-(2,5-Dimethoxybenzyloxy)-2-hydroxybenzoic acid methyl ester] yielded an inhibition of swelling in assay [1] of 46%. For the same molecule, in the assay with HACAT keratinocytes (Homo sapiens, HaCaT), the IC50 was less than 1 µM.
Consider `O=c1c(-c2ccc(O)cc2)coc2cc(O)cc(O)c12` [genistein], for which the IC50 was 5 to 50 µM in the assay on HACAT keratinocytes (Homo sapiens, HaCaT) and 5 µM in the assay on HACAT keratinocytes.

Broadly, the IC50 is the midpoint of a concentration-inhibition curve.

For the origin of these results see patent publication EP0497740B1, “Benzyloxyphenyl derivatives” (SANDOZ LTD., priority 1991, dated 1992).
